Assay results taken from ChEMBL document CHEMBL5532657, “Serendipitous discovery of Class I HDAC inhibitors from rational design of molecular glue degraders targeting HDAC” (Eur J Med Chem, 2024).
Active and inactive are the calls of the source.

Columns and labels:
[1] = test system: A549; experiment: Antiproliferative activity against human A549 cells assessed as cell growth inhibition at 5 uM incubated for 48 hrs by CCK-8 assay; format: functional, cell-based
[2] = biological target: T1, Protein deacetylase HDAC6 (Homo sapiens) (UniProt Q9UBN7); experiment: Induction of HDAC6 degradation in human RS4-11 cells at 0.5 to 10 uM incubated for 12 hrs by Western blotting analysis; format: cell-based; conditions: dose 0.5-10 µM
T1 sequence (whole entry): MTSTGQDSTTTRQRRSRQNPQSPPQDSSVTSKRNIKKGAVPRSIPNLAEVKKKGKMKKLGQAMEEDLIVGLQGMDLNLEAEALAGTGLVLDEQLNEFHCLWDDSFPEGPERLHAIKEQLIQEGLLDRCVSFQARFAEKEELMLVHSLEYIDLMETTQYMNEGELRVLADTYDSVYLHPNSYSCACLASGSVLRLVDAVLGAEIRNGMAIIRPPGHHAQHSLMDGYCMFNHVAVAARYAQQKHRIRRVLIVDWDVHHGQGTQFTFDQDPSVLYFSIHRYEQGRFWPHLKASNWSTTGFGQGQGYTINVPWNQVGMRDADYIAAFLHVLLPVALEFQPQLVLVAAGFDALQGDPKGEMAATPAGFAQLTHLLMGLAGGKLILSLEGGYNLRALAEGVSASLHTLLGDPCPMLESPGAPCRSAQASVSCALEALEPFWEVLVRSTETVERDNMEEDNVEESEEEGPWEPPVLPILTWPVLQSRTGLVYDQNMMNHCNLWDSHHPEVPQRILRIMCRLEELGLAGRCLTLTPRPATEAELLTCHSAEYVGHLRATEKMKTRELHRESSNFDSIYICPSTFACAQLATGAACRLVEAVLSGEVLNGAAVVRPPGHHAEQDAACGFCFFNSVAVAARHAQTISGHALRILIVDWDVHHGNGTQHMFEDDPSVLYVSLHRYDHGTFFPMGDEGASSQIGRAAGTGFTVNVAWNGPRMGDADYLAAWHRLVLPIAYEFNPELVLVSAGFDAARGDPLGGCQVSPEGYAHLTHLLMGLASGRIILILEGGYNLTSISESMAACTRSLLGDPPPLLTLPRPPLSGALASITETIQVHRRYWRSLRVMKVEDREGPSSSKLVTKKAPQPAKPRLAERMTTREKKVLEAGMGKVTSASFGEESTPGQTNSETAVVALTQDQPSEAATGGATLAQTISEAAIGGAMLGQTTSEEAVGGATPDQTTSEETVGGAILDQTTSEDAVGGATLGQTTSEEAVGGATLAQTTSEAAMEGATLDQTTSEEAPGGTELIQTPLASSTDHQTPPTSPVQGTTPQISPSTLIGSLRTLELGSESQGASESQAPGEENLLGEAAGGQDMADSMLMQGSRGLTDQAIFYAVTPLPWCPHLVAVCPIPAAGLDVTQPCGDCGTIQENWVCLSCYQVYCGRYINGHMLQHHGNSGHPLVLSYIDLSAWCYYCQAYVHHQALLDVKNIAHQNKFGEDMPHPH

[3] = test system: HCT-116; experiment: Antiproliferative activity against human HCT-116 cells assessed as cell growth inhibition at 5 uM incubated for 48 hrs by CCK-8 assay; format: functional, cell-based
[4] = biological target: Histone deacetylase 1 (Homo sapiens, UniProt Q13547); experiment: Induction of HDAC1 degradation in human RS4-11 cells at 0.5 to 10 uM incubated for 12 hrs by Western blotting analysis; format: cell-based; conditions: dose 0.5-10 µM
Histone deacetylase 1, sequence (Q13547 whole entry): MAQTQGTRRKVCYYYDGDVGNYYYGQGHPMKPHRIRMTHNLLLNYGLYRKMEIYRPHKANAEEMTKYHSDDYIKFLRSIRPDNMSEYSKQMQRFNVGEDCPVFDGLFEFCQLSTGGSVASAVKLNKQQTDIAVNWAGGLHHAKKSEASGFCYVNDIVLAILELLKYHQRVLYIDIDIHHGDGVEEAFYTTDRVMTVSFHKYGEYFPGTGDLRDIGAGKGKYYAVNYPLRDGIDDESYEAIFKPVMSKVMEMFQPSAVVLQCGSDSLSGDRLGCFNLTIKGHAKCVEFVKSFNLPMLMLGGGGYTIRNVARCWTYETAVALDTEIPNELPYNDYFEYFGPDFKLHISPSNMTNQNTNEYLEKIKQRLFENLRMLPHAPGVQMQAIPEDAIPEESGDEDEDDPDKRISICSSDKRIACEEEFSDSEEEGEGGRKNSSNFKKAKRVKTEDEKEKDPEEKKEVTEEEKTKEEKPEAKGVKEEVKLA

[5] = test system: HeLa; experiment: Antiproliferative activity against human HeLa cells assessed as cell growth inhibition at 5 uM incubated for 48 hrs by CCK-8 assay; format: functional, cell-based

Measured: Activity

Nc1cc(F)ccc1NC(=O)c1cn(CCOCCOCCNc2cccc3c2C(=O)N(C2CCC(=O)NC2=O)C3=O)nn1 (stereo not given)
inactive: all assays above

Nc1ccccc1NC(=O)c1cn(CCOCCNc2cccc3c2C(=O)N(C2CCC(=O)NC2=O)C3=O)nn1 (stereo not given)
inactive: all assays above

Nc1ccccc1NC(=O)CCCCCCCNc1cccc2c1C(=O)N(C1CCC(=O)NC1=O)C2=O (stereo not given)
inactive: all assays above

O=C(CCCCCNc1cccc2c1C(=O)N(C1CCC(=O)NC1=O)C2=O)NO (stereo not given)
inactive: all assays above

Nc1cc(F)ccc1NC(=O)CCCCCNc1cccc2c1C(=O)N(C1CCC(=O)NC1=O)C2=O (stereo not given)
inactive: all assays above

Nc1ccccc1NC(=O)CCCNc1cccc2c1C(=O)N(C1CCC(=O)NC1=O)C2=O (stereo not given)
inactive: all assays above

Nc1ccccc1NC(=O)c1cn(CCOCCOCCOCCNc2cccc3c2C(=O)N(C2CCC(=O)NC2=O)C3=O)nn1 (stereo not given)
inactive: all assays above

O=C1CCC(N2C(=O)c3cccc(NCc4ccc(C(=O)NCCS)cc4)c3C2=O)C(=O)N1 (stereo not given)
inactive: all assays above

CCNNC(=O)c1ccc(CNc2cccc3c2C(=O)N(C2CCC(=O)NC2=O)C3=O)cc1 (stereo not given)
inactive: all assays above

O=C(CCCCCNc1cccc2c1C(=O)N(C1CCC(=O)NC1=O)C2=O)NCCS (stereo not given)
inactive: all assays above

Nc1ccccc1NC(=O)CCCCCNc1cccc2c1C(=O)N(C1CCC(=O)NC1=O)C2=O (stereo not given)
inactive: all assays above

O=C1CCC(N2C(=O)c3cccc(NCCOCCn4cc(C(=O)NCCS)nn4)c3C2=O)C(=O)N1 (stereo not given)
inactive: all assays above
